Reference: patent publication US5707821A, “Identification of phospholipase A2 inhibitors in Aβ peptide-mediated neurodegenerative disease” (priority 1995, dated 1998)

Experiments:
human cortical neurons = assay: Aβ neurotoxicity in human cortical neurons (alamarBlue), 2 h pretreatment with inhibitor; type: cell-based; conditions: Homo sapiens, Cortical neurone, 50 μM Aβ1-40, compound 390 nM to 100 μM, 2 h pretreatment and re-added with Aβ, 3 days, n=3
Protocol: Cultures of human cortical or hippocampal neurons were prepared using a modification of the procedure described in P. Seubert et al. (1992), Nature 359:325-327. Cortical or hippocampal tissue was dissociated by incubation in a trypsin/EDTA solution (0.05% trypsin +0.53 mM EDTA in HBSS; Gibco) for 20 minutes at 37° C. The trypsin was then inactivated by resuspending the cells in serum-containing medium (MEM/FBS): Modified Eagle's Medium (MEM) containing 1% glucose, 1 mM sodium pyruvate, 1 mM glutamine, and supplemented with 10% fetal bovine serum (Gibco). Cells were then pelleted by centrifugation and resuspended in a chemically-defined medium (MEM/B27): MEM containing B27 supplement (Gibco) in place of FBS. Polyethyleneimine (PEI)-coated 6.4-mm (96-well) dishes were rinsed once with MEM/FBS, and then seeded at 0.75-1.25×10^5 cells per well in 0.1 ml MEM/B27. Cultures were maintained in a H2 O-saturated incubator with an atmosphere of 95% air/5% CO2 at 37° C. The culture medium was exchanged twice weekly.
Amyloid-β (Aβ) stock solutions were prepared as 1 mM stocks in sterile ddH2 O immediately prior to addition to cultures. Rat cortical neurons were exposed to Aβ by removing the culture medium and replacing it with DMEM/N2 or DMEM/B27 containing Aβ1-40. Human cortical neurons were exposed to Aβ by removing the culture medium and replacing it with MEM, MEM/N2, or MEM/B27 containing Aβ1-40. Cultures were maintained for 2-4 days before neuronal survival was quantified using alamarBlue™.
The alamarBlue™ assay incorporated a proprietary fluorometric/colorimetric metabolic indicator (Alamar Biosciences, Inc.). Viable cells convert alamarBlue™ from an oxidized (non-fluorescent, blue) form to a reduced (fluorescent, red) form. Assays were performed by replacing the culture media with a 10% alamarBlue™ solution in DMEM (rat cortical cultures) or MEM (human cortical cultures). Reduction of alamarBlue™ was determined spectrofluorometrically using a Millipore Cytofluor 2350 Scanner (excitation, […]; emission, 590 nm) and CytoCalc™ software (Millipore Corporation).
The effect of pretreating human cortical neuron cultures with the benzenesulfonamide PLA2 inhibitors and arachidonyl trifluoromethyl ketone prior to exposure to a neurotoxic concentration of Aβ1-40 was determined.
Human cortical neurons were treated with 50 μM Aβ1-40 and various inhibitors of PLA2. Compounds were added 2 hours prior to Aβ1-40 treatment at concentrations of 390 nM to 100 μM, and were then re-added at the time of Aβ1-40 treatment. Compounds were also added in an identical manner to neuronal cultures in the absence of Aβ1-40. Neuronal survival was determined after 3 days of treatment by alamarBlue®. IC50 is the dose of compound that inhibited Aβ-mediated neurotoxicity by 50%. […] Data represents the mean ± SD (n=3). ND, not detected at the concentration range used.

[1] = tested on: TNF-α release by cultured human cortical microglia; assay: TNF-α release (ELISA) from Aβ1-40-stimulated human microglia; type: cell-based
Protocol: Cultures of human cortical or hippocampal astrocytes and microglia were prepared using a modification of the procedure described for cortical neurons. Cortical tissue from fetuses of 16 to 20 weeks of gestation was washed 3 times in Ca^2+ /Mg^2+ free Hanks balanced salt solution (CMF HBSS) and then dissociated by repeated pipetting. The solution was brought to a final volume of 80 ml CMF HBSS for approximately 10 ml of tissue. DNase (Sigma) was added to a final concentration of 0.05 mg/ml. 20 ml of the solution was passed through one 100 μm nylon cell strained (Falcon). The cells were then centrifuged for 5 minutes at 200×G in an IEC Clinical Centrifuge and resuspended in a trypsin/EDTA solution (0.05% trypsin+0.53 mM EDTA in HBSS; Gibco) and incubated for 20 minutes at 37°C. (10 ml of trypsin was added per 2-3 ml of tissue). The trypsin was then inactivated by adding (MEM/FBS): Modified Eagle's Medium (MEM) containing 1% glucose, 1 mM sodium pyruvate, 1 mM glutamine, and supplemented with 10% fetal bovine serum (JRH). After adding a final concentration of 0.05 mg/ml DNase the cells were resuspended and then pelleted by centrifugation and resuspended in MEM/FBS. 1.6×10^8 cells were seeded in a T-150 tissue culture flask coated with polyethyleneimine (PEI). (10% PEI (Sigma) was diluted 1:10 in H2 O, filtered through a […] unit and then diluted into 150 mM sodium borate pH 8.5 at 1:100. The flasks were coated overnight at room temperature, washed two times in PBS and coated with 20 ml/flask of MEM/FBS at 37° C. for at least one hour prior to plating cells.) Cultures were maintained in a H2 O-saturated incubator with an atmosphere of 95% air/5% CO2 at 37° C. The culture medium was changed one and four days after plating and the cultures were then left undisturbed for at least one week. After approximately two weeks in vitro, the flasks were gently shaken and floating microglia were collected and centrifuged for 5 minutes at 200×G in an IEC Clinical Centrifuge. The microglia were reseeded in 96 well tissue culture plates at a density of 5,000-40,000 cells/well in 125 μl in MEM/FBS. Astrocyte cultures were prepared by multiple passaging of the established mixed brain cell cultures. Each T-150 was incubated for 3-4 minutes at 37°C. with a trypsin/EDTA solution (see above). The trypsin was then inactivated by adding MEM/FBS. The cells were triturated and then pelleted by centrifugation and resuspended in MEM/FBS. The cells from one T-150 were seeded at a 1:30 to 1:5 dilution in T-150's not coated. Just prior to confluency the cells were repassaged by trypsinization as described above. This process was repeated until the cultures were >98% pure astrocytes.
Cultured microglial cells were treated with 50 μM of Aβ1-40 or vehicle only (Control). The levels of IL-1β, IL-6, and TNF-α released into the culture medium were determined by ELISA assay (R&D Systems) according to manufacturer's instructions.
The effect of two benzenesulfonamide inhibitors of PLA2 (European Patent Application 468 054) were examined on the activation of microglial cells by Aβ1-40 as in Example 1.
The effects of the benzenesulfonamide PLA2 inhibitor AN20606 and the selective cytosolic PLA2 inhibitor arachidonyl trifluoromethyl ketone (AN20579) were examined in cultured human cortical microglia for their selectivity for inhibiting microglia activation mediated by amyloid-βpeptide and lipopolysaccharides (LPS). LPS are a major constituent of the cell wall of gama-negative bacteria and are extensively used for generating inflammatory responses in cultured cells and in vivo.

CN(C(=O)/C=C/c1ccc(S(C)(=O)=O)cc1)c1ccc(S(=O)(=O)NC2CCCCCC2)cc1 [AN20606, N-cycloheptyl-4-[N-methyl-N-[(E)-3-(4-methylsulfonylphenyl)-2-propenoyl]amino]benzenesulfonamide]
Emax (human cortical neurons; 72 h, read-out: Max Inh): 89% | IC50 (human cortical neurons; ND = not detected at the concentration range used, read-out: IC50 (dose that inhibited Aβ-mediated neurotoxicity by 50%)): 3000 nM | amount of TNF-α released into the medium (in words) ([1]; 50 μM Aβ1-40, 1 day, compound 0, 5, 10, 20 μM, FIG. 2): marked and dose-dependent decrease | TNF Released ([1]; 50 μM Aβ1-40, inhibitor 20 μM where present): 3.7 ± 1.4 pg/mL | Aβ1-40-mediated TNFα release, selectivity versus LPS (in words) ([1]; Aβ1-40 versus LPS stimulation): selectively inhibited | activity at 20 µM ([1]; Homo sapiens, Microglia, 50 μM Aβ1-40 + 20 μM inhibitor, read-out: TNF Released, percent in parentheses (relative to Aβ1-40 alone)): 4%
